Experimental data published in ChEMBL document CHEMBL5620353, “Novel antifungal triazoles with alkynyl-methoxyl side chains: Design, synthesis, and biological activity evaluation” (Eur J Med Chem, 2023).
Values after ≈ are worked out from the molar mass of the structure shown. Active and inactive are the calls of the source. The calls are words filed in the database; no cut-off is given here.

Tests used:
[1] = tested on: Candida albicans; experiment: Antifungal activity against Candida albicans SC5314 assessed as inhibition of fungal growth incubated for 48 hrs by microbroth dilution method; format: functional
[2] = tested on: Candida albicans; experiment: Antifungal activity against Candida albicans 10231 assessed as inhibition of fungal growth incubated for 48 hrs by microbroth dilution method; format: functional
[3] = tested on: Nakaseomyces glabratus; experiment: Antifungal activity against Candida glabrata 537 assessed as inhibition of fungal growth incubated for 48 hrs by microbroth dilution method; format: functional
[4] = tested on: Pichia kudriavzevii; experiment: Antifungal activity against Candida krusei 4996 assessed as inhibition of fungal growth incubated for 48 hrs by microbroth dilution method; format: functional
[5] = tested on: Candida tropicalis; experiment: Antifungal activity against Candida tropicalis 8915 assessed as inhibition of fungal growth incubated for 48 hrs by microbroth dilution method; format: functional
[6] = tested on: Cryptococcus neoformans; experiment: Antifungal activity against Cryptococcus neoformans 32,609 assessed as inhibition of fungal growth incubated for 72 hrs by microbroth dilution method; format: functional
[7] = tested on: Aspergillus fumigatus; experiment: Antifungal activity against Aspergillus fumigatus 7544 assessed as inhibition of fungal growth incubated for 72 hrs by microbroth dilution method; format: functional
[8] = tested on: Nakaseomyces glabratus; experiment: Potency index, ratio of fluconazole MIC to test compound MIC for antifungal activity against Candida glabrata 537 assessed as inhibition of fungal growth incubated for 48 hrs by microbroth dilution method; format: functional
[9] = tested on: Candida albicans; experiment: Antifungal activity against fluconazole-resistant Candida albicans 901 assessed as inhibition of fungal growth incubated for 48 hrs by microbroth dilution method; format: functional
[10] = tested on: Candida albicans; experiment: Antifungal activity against fluconazole-resistant Candida albicans 904 assessed as inhibition of fungal growth incubated for 48 hrs by microbroth dilution method; format: functional
[11] = tested on: [Candida] auris; experiment: Antifungal activity against fluconazole-resistant Candida auris 891 assessed as inhibition of fungal growth incubated for 48 hrs by microbroth dilution method; format: functional; settings: Candidozyma auris
[12] = tested on: [Candida] auris; experiment: Antifungal activity against fluconazole-resistant Candida auris 919 assessed as inhibition of fungal growth incubated for 48 hrs by microbroth dilution method; format: functional; settings: Candidozyma auris
[13] = tested on: Cryptococcus neoformans; experiment: Antifungal activity against Cryptococcus neoformans 32,609 assessed as reduction in fungal growth and viability at 0.5 to 1 ug/ml incubated for 48 hrs by spot assay; format: functional, organism-based; settings: dose 0.5-1 µg/ml
[14] = tested on: Candida albicans; experiment: Antifungal activity against Candida albicans SC5314 assessed as reduction in fungal growth measured after 6 to 24 hrs by optical density based method; format: functional, organism-based; settings: dose 0.0625-16 µg/ml, time 6-24 hrs
[15] = tested on: Candida albicans; experiment: Antifungal activity against Candida albicans SC5314 assessed as inhibition of fungal growth at 0.0625 ug/ml measured after 12 hrs by optical density based method; format: functional
[16] = tested on: Candida albicans; experiment: Inhibition of biofilm formation in Candida albicans SC5314 at 64 ug/ml incubated for 24 hrs by XTT reduction assay relative to control; format: functional
[17] = tested on: Candida albicans; experiment: Antibiofilm activity against Candida albicans SC5314 preformed biofilms at 64 ug/ml incubated for 24 hrs by XTT reduction assay relative to control; format: functional; design: scale not given: the % may be the effect or the level left; settings: dose 64 µg/ml
[18] = tested on: Candida albicans; experiment: Antibiofilm activity against Candida albicans SC5314 preformed biofilms incubated for 24 hrs by XTT reduction assay; format: functional, organism-based; settings: dose 0.25-64 µg/ml
[19] = Cytotoxicity against HUVEC cells assessed as cell survival at <16 ug/ml incubated for 24 hrs by CCK-8 assay relative to control; format: toxicity, cell-based; settings: human, dose < 16 µg/ml, read-out: Survival
[20] = Cytotoxicity against HUVEC cells assessed as cell survival at 128 ug/ml incubated for 24 hrs by CCK-8 assay relative to control; format: toxicity, cell-based; settings: human, at 128 µg/mL, read-out: Survival
[21] = Cytotoxicity against HUVEC cells assessed as reduction in cell survival incubated for 24 hrs by CCK-8 assay; format: toxicity, cell-based; settings: human
[22] = Selectivity index, ratio of IC50 for HUVEC cells to MIC for Candida glabrata 537; format: toxicity; settings: human, HUVEC cells versus Candida glabrata 537; read-out: Selectivity Index
[23] = target: Cytochrome P450 2C19 (Homo sapiens, UniProt P33261); experiment: Inhibition of human CYP2C19 using mephenytoin as substrate prewarmed for 10 mins followed by NADPH addition and measured after 10 mins by LC-MS/MS analysis; format: ADME
[24] = target: Cytochrome P450 2D6 (Homo sapiens, UniProt P10635); experiment: Inhibition of human CYP2D6 using dextromethorphan as substrate prewarmed for 10 mins followed by NADPH addition and measured after 10 mins by LC-MS/MS analysis; format: ADME
[25] = target: Cytochrome P450 3A4 (Homo sapiens, UniProt P08684); experiment: Inhibition of human CYP3A4 using midazolam as substrate prewarmed for 10 mins followed by NADPH addition and measured after 10 mins by LC-MS/MS analysis; format: ADME
[26] = Metabolic stability in human liver microsomes assessed as half life at 1 uM preincubated for 10 mins followed by NADPH addition and measured upto 60 mins by LC-MS/MS analysis; format: ADME, Microsome; settings: time < 70 min
[27] = Metabolic stability in human liver microsomes assessed as intrinsic clearance at 1 uM preincubated for 10 mins followed by NADPH addition and measured upto 60 mins by LC-MS/MS analysis; format: ADME, Microsome; settings: time < 70 min, read-out: CLH
[28] = tested on: Saccharomyces cerevisiae; experiment: Antifungal activity against recombinant Saccharomyces cerevisiae Y525 overexpressing CaMdr1 assessed as inhibition of fungal growth incubated for 48 hrs by microbroth dilution method; format: functional
[29] = tested on: Saccharomyces cerevisiae; experiment: Antifungal activity against recombinant Saccharomyces cerevisiae Y570 overexpressing CaCdr1 assessed as inhibition of fungal growth incubated for 48 hrs by microbroth dilution method; format: functional
[30] = tested on: Saccharomyces cerevisiae; experiment: Antifungal activity against recombinant Saccharomyces cerevisiae Y2411 overexpressing ScErg11 assessed as inhibition of fungal growth incubated for 48 hrs by microbroth dilution method; format: functional
[31] = tested on: Saccharomyces cerevisiae; experiment: Antifungal activity against recombinant Saccharomyces cerevisiae Y2300 overexpressing ScErg11 assessed as inhibition of fungal growth incubated for 48 hrs by microbroth dilution method; format: functional
[32] = tested on: Saccharomyces cerevisiae; experiment: Antifungal activity against recombinant Saccharomyces cerevisiae Y2301 overexpressing ScErg11 Y140F assessed as inhibition of fungal growth incubated for 48 hrs by microbroth dilution method; format: functional
[33] = tested on: Saccharomyces cerevisiae; experiment: Antifungal activity against recombinant Saccharomyces cerevisiae Y2513 overexpressing ScErg11 Y140H assessed as inhibition of fungal growth incubated for 48 hrs by microbroth dilution method; format: functional
[34] = tested on: Saccharomyces cerevisiae; experiment: Antifungal activity against recombinant Saccharomyces cerevisiae Y2374 overexpressing CgErg11 assessed as inhibition of fungal growth incubated for 48 hrs by microbroth dilution method; format: functional
[35] = tested on: Saccharomyces cerevisiae; experiment: Antifungal activity against recombinant Saccharomyces cerevisiae Y2462 overexpressing ScErg11 ScNcp1 assessed as inhibition of fungal growth incubated for 48 hrs by microbroth dilution method; format: functional
[36] = tested on: Saccharomyces cerevisiae; experiment: Antifungal activity against recombinant Saccharomyces cerevisiae Y2459 overexpressing CaErg11 CaCpr assessed as inhibition of fungal growth incubated for 48 hrs by microbroth dilution method; format: functional
[37] = tested on: Saccharomyces cerevisiae; experiment: Antifungal activity against recombinant Saccharomyces cerevisiae Y2721 overexpressing CpErg11 CpCpr assessed as inhibition of fungal growth incubated for 48 hrs by microbroth dilution method; format: functional
[38] = tested on: Saccharomyces cerevisiae; experiment: Antifungal activity against recombinant Saccharomyces cerevisiae Y2716 overexpressing CpErg11 Y132F CpCpr assessed as inhibition of fungal growth incubated for 48 hrs by microbroth dilution method; format: functional
[39] = tested on: Saccharomyces cerevisiae; experiment: Resistance index, ratio of MIC for recombinant Saccharomyces cerevisiae Y525 overexpressing CaMdr1 to MIC for recombinant Saccharomyces cerevisiae Y2411 overexpressing ScErg11; format: functional

Chain of Cytochrome P450 2C19 (P33261 whole entry): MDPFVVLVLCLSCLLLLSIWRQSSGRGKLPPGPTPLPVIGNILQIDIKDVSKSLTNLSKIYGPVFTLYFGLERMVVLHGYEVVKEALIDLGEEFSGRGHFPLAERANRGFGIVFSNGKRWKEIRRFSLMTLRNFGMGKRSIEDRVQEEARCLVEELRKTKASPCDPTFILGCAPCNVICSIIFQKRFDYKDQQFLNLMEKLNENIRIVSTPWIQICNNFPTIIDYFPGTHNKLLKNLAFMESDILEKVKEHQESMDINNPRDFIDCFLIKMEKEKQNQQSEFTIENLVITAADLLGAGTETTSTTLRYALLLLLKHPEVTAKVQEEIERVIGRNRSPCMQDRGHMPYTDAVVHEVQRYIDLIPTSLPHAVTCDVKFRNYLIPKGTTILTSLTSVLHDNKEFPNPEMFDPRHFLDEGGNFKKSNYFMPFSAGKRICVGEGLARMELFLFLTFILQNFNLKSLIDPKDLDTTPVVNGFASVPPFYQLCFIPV
Chain of Cytochrome P450 3A4 (P08684 whole entry): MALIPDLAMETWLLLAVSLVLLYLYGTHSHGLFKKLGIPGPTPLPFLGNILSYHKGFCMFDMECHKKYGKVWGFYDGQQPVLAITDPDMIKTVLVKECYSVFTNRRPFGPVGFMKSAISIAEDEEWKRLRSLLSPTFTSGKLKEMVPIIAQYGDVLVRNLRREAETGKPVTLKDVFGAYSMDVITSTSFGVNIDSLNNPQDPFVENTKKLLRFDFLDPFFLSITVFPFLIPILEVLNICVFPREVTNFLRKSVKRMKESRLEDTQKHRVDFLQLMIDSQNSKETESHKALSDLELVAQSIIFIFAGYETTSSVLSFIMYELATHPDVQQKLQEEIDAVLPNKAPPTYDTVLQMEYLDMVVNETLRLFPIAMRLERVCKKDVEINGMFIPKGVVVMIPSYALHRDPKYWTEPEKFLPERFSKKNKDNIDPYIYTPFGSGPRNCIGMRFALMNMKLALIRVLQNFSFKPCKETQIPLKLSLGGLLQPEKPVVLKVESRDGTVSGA
Chain of Cytochrome P450 2D6 (P10635 whole entry): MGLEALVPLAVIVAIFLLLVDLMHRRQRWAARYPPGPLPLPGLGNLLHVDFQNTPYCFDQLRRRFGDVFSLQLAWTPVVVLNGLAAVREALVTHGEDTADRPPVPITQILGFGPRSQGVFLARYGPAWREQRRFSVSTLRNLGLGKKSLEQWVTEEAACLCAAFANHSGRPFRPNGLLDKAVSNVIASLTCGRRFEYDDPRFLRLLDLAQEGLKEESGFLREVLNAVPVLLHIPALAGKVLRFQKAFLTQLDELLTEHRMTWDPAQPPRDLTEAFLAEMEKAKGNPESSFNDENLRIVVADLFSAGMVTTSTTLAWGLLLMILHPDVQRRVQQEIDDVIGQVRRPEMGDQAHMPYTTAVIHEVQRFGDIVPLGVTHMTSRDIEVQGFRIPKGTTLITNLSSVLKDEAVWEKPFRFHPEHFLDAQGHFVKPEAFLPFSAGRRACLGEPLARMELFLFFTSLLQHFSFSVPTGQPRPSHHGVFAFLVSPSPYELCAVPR

| Compound | MIC [1] | MIC [2] | MIC [3] | MIC [4] | MIC [5] | MIC [6] | MIC [7] | Ratio [8] | MIC [9] | MIC [10] | MIC [11] | MIC [12] | Activity [13] | Activity [14] | inhibition at 0.0625 µg/mL [15] | inhibition at 64 µg/mL [16] | Activity [17] | Activity [18] | viability at 24 h [19] | viability at 24 h, 128 ug/ml [20] | further results |
| --- | --- | --- | --- | --- | --- | --- | --- | --- | --- | --- | --- | --- | --- | --- | --- | --- | --- | --- | --- | --- | --- |
| C[C@@H](OCC#Cc1ccc(F)cc1F)[C@](O)(Cn1cncn1)c1ccc(F)cc1F | ≤ 0.125 µg/mL | 8 µg/mL (≈ 19.1 µM) | ≤ 0.125 µg/mL | 4 µg/mL (≈ 9.54 µM) | 32 µg/mL (≈ 76.3 µM) | 0.5 µg/mL (≈ 1.19 µM) | 4 µg/mL (≈ 9.54 µM) | >=8 | 32 µg/mL (≈ 76.3 µM) | 16 µg/mL (≈ 38.2 µM) | 32 µg/mL (≈ 76.3 µM) | 16 µg/mL (≈ 38.2 µM) | Active | Dose-Dependent Effect | 100% | 37% | 51.39% | Dose-Dependent Effect | > 80% | 36% | IC50 at 24 h [21]: 76.4 µg/mL (≈ 182 µM); selectivity ratio [22]: > 500; IC50 [23]: 73 nM; IC50 [24]: 23800 nM; IC50 [25]: 566 nM; half-life at 1 µM [26]: 50.8 min; microsomal CLint at 1 µM [27]: 26.2 µL/min/mg; MIC [28]: 0.25 µg/mL; MIC [29]: 32 µg/mL; MIC [30]: 0.008 µg/mL; MIC [31]: 0.063 µg/mL; MIC [32]: 0.063 µg/mL; MIC [33]: 0.031 µg/mL; MIC [34]: 0.063 µg/mL; MIC [35]: 0.063 µg/mL; MIC [36]: 0.016 µg/mL; MIC [37]: 0.063 µg/mL; MIC [38]: 0.063 µg/mL; Ratio [39]: >=16 |
| C[C@@H](OCC#Cc1ccc(C#N)cc1)[C@](O)(Cn1cncn1)c1ccc(F)cc1F | ≤ 0.125 µg/mL | 8 µg/mL (≈ 19.6 µM) | ≤ 0.125 µg/mL | 8 µg/mL (≈ 19.6 µM) | ≤ 0.125 µg/mL | 0.5 µg/mL (≈ 1.22 µM) | 1 µg/mL (≈ 2.45 µM) | >=8 | 16 µg/mL (≈ 39.2 µM) | 16 µg/mL (≈ 39.2 µM) | 16 µg/mL (≈ 39.2 µM) | 16 µg/mL (≈ 39.2 µM) | Active | Dose-Dependent Effect | 100% | 43.9% | 55.46% | Dose-Dependent Effect | > 80% | 34.9% | IC50 at 24 h [21]: 88.5 µg/mL (≈ 217 µM); selectivity ratio [22]: > 500; IC50 [23]: 566 nM; IC50 [24]: 27200 nM; IC50 [25]: 607 nM; half-life at 1 µM [26]: 54.5 min; microsomal CLint at 1 µM [27]: 25.6 µL/min/mg; MIC [28]: 0.25 µg/mL; MIC [29]: 16 µg/mL; MIC [30]: 0.008 µg/mL; MIC [31]: 0.031 µg/mL; MIC [32]: 0.063 µg/mL; MIC [33]: 0.016 µg/mL; MIC [34]: 0.031 µg/mL; MIC [35]: 0.031 µg/mL; MIC [36]: 0.016 µg/mL; MIC [37]: 0.063 µg/mL; MIC [38]: 0.063 µg/mL; Ratio [39]: >=16 |
| C[C@@H](OCC#Cc1ccncc1)[C@](O)(Cn1cncn1)c1ccc(F)cc1F | ≤ 0.125 µg/mL | 32 µg/mL (≈ 83.2 µM) | ≤ 0.125 µg/mL | 4 µg/mL (≈ 10.4 µM) | 32 µg/mL (≈ 83.2 µM) | ≤ 0.125 µg/mL | 4 µg/mL (≈ 10.4 µM) | >=8 | 32 µg/mL (≈ 83.2 µM) | 32 µg/mL (≈ 83.2 µM) | 32 µg/mL (≈ 83.2 µM) | 16 µg/mL (≈ 41.6 µM) | Active | Dose-Dependent Effect | 100% | 43.4% | 50.31% | Dose-Dependent Effect | > 80% | 28.7% | IC50 at 24 h [21]: 64.9 µg/mL (≈ 169 µM); selectivity ratio [22]: > 500; IC50 [23]: 394 nM; IC50 [24]: 5810 nM; IC50 [25]: 309 nM; half-life at 1 µM [26]: 7.35 min; microsomal CLint at 1 µM [27]: 188 µL/min/mg; MIC [28]: 0.25 µg/mL; MIC [29]: 4 µg/mL; MIC [30]: 0.008 µg/mL; MIC [31]: 0.031 µg/mL; MIC [32]: 0.063 µg/mL; MIC [33]: 0.031 µg/mL; MIC [34]: 0.063 µg/mL; MIC [35]: 0.063 µg/mL; MIC [36]: 0.016 µg/mL; MIC [37]: 0.063 µg/mL; MIC [38]: 0.063 µg/mL; Ratio [39]: >=16 |
